Earlier results as cited in paper PMC8966651, “PKPD Modeling of the Inoculum Effect of Acinetobacter baumannii on Polymyxin B in vivo” (Frontiers in Pharmacology, 2022).
Where two headings read alike, the source gives them in different places.

Key:
E. coli [1] = settings: murine thigh infection model; ref de Araujo et al., 2011; cited from earlier work
From the text: An innovative aspect of this study was the refinement of a PKPD model, based on the model developed after in vitro TK experiments conducted with A. baumannii and PMB ([Akrong et al., 2021]). […] The different growth behavior between in vitro and in vivo has been associated in literature ...

E. coli [2] = settings: cited from earlier work; for E. coli MICs at initial inoculum 10^7 CFU/ml compared to 10^5 CFU/ml: in vitro
From the text: The clinical relevance of in vitro IE has been questioned in previous studies ([Maglio et al., 2004]; [Maglio et al., 2005]; [Fantin et al., 2019]).

A. baumannii = settings: initial inoculum of A. baumannii increased from 10^7 to 10^8 CFU/lung; ref Lin et al., 2018; cited from earlier work
From the text: Yet the IE of A. baumannii on polymyxins in vivo remains to be investigated. […] But IE was only investigated on rare occasions in vivo, with antibiotics such as marbofloxacin ([Ferran et al., 2009]), piperacillin-tazobatam ([Harada et al., 2014]), ertapenem ([Maglio et al., 2005]), meropenem ([Mizunaga et al., 2005]) or colistin ([Fantin et al., 2019]) against various Gram-negative pathogens such as E. coli, K. pneumoniae ...

Compound: CCN1CCN(C(=O)N[C@@H](C(=O)N[C@@H]2C(=O)N3[C@@H]2SC(C)(C)[C@@H]3C(=O)O)c2ccccc2)C(=O)C1=O [piperacillin]
- maximum killing effect in vivo as compared to in vitro (E. coli [1]): two times smaller

Compound: CO/N=C(\C(=O)N[C@@H]1C(=O)N2C(C(=O)[O-])=C(C[N+]3(C)CCCC3)CS[C@H]12)c1csc(N)n1 [cefepime]
- E. coli MICs at initial inoculum 10^7 CFU/ml compared to 10^5 CFU/ml (E. coli [2]; ref Maglio et al., 2004): elevations of E. coli MICs
- inoculum effect (IE) in vivo (E. coli [2]; neutropenic mouse thigh infection model, ref Maglio et al., 2004): no IE was observed in vivo

Compound: colistin
- efficacy of nebulized colistin with increasing inoculum (A. baumannii): decrease in the efficacy
- inoculum effect (IE) in vivo (E. coli [2]; mice infected with E. coli, ref Fantin et al., 2019): observed an in vivo IE

Compound: C[C@@H](O)[C@H]1C(=O)N2C(C(=O)O)=C(S[C@@H]3CN[C@H](C(=O)Nc4cccc(C(=O)O)c4)C3)[C@H](C)[C@H]12 [ertapenem]
- E. coli MICs at initial inoculum 10^7 CFU/ml compared to 10^5 CFU/ml (E. coli [2]; ref Maglio et al., 2005): elevations of E. coli MICs
- inoculum effect (IE) in vivo (E. coli [2]; neutropenic mouse thigh infection model, ref Maglio et al., 2005): no IE was observed in vivo
